A value given as a limit tells only on which side of the number the result lay.

What all share (test): Preservative effectiveness test
Common to all, as to format: cell-based

The test system of test [1] is Pseudomonas aeruginosa ATCC 9027. The note with it: same solution. Here is the method:
(§1) 0.2 g of QA-beta-CD (QA-beta-CD=3-(trimethylammonio)-2-hydroxypropyl-beta-cyclodextrin chloride, empiric formula: (C6H10-nO5)7(C6H15ONCl)n n=2-5. are added to 170 ml water (nanopure). Then 10.10 g of Sorbitol and 0.2 g of Disodium edetate are added and the pH is adjusted to a value of 7.0-7.4 and water added to make up 200 ml of resulting solution. The solution is filtered through a Corning bottle top filter unit 0.22 μm CA under sterile conditions. The solution has a pH of 7.35 and an osmolality of 307 mOsm/kg (270-330).
(§2) Samples of the solution are inoculated with Escherichia coli ATCC 8739; Pseudomonas aeruginosa ATCC 9027, Staphyloccocus aureus ATCC 6538; Candida albicans ATCC 10231 and Aspergillus niger ATCC 16404, respectively and assayed for presence/growth at the times given in Table 2.

In test [2] the test system is Escherichia coli ATCC 8739. The note with it: same solution. As to the method:
as §1, §2

For test [3], the system named is Staphyloccocus aureus ATCC 6538. To be noted: same solution. As to the method: as §1, §2
In test [4] the test system is Candida albicans ATCC 10231. The note with it: same solution. Here is the method:
as §1, §2

The test system of test [5] is Aspergillus niger ATCC 16404. The note with it: Time 28 d; same solution. Here is the method:
as §1, §2

In the case of “3-(trimethylammonio)-2-hydroxypropyl-beta-cyclodextrin chloride [QA-beta-CD]”, the “presence/growth of Pseudomonas aeruginosa ATCC 9027” value in test [1] (Time 6 h), in test [1] (Time 24 h), in test [1] (Time 7 d) and in test [1] (Time 28 d) was <10^2 throughout. Moreover, the “presence/growth of Escherichia coli ATCC 8739” value in test [2] (Time 6 h), in test [2] (Time 24 h), in test [2] (Time 7 d) and in test [2] (Time 28 d) was <10^2 in each case. For the same substance, the “presence/growth of Staphyloccocus aureus ATCC 6538” value in test [3] (Time 24 h), in test [3] (Time 7 d) and in test [3] (Time 28 d) was <10^2 each time. In addition, the “presence/growth of Candida albicans ATCC 10231” value in test [4] (Time 7 d), in test [4] (Time 14 d) and in test [4] (Time 28 d) was <10^2 in each case. Moreover, in test [5], the “presence/growth of Aspergillus niger ATCC 16404” value is recorded as 2. 10^2.

Values taken from patent US20050222085A1, “Quaternised ammonium cyclodextrin compounds” (priority 2002, published 2005).
